Measured values reported in the METLIN SMRT retention time set (Domingo-Almenara et al. 2019).

Test: gradient 5% acetonitrile 3 min, to 50% in 2 min, to 85% in 15 min, held 3 min, 100 µL/min
Conditions: column: Zorbax Extend-C18 2.1 x 50 mm; eluents: water / acetonitrile, 0.1% formic acid
Summary of the method: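 Standards, all pure, were combined into mixtures of ~100 molecules and run at 100 μL/min on a Zorbax Extend-C18 column (2.1 × 50 mm, 1.8 μm) with water and acetonitrile, each containing 0.1% formic acid. A coupled quadrupole time-of-flight mass spectrometer operated in positive and negative ionization mode. Retention time values come from computationally picked adduct peaks, each inspected manually.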

Row | SMILES | RP-LC retention time
1 | CC1CCCCN1CCNC(=O)c1cc(S(=O)(=O)N2CCCC2)ccc1Cl (configuration not stated) | 617 s
2 | Cc1cnc(C2CNC2)n1Cc1ccccc1 | 589 s
3 | CCn1c(=O)c(C)nc2cc(-c3noc(-c4ccc(N(C)C)cc4)n3)ccc21 | 1140 s
4 | Cc1ccc(-c2nc(C3CC(=O)N(c4ccc(F)cc4)C3)no2)cc1C (configuration not stated) | 1100 s
5 | Cc1csc(-c2cc(S(=O)(=O)NC3CCCC3)cn2CC(=O)N2CCCCC2)n1 | 934 s
6 | CCc1c(C(=O)O)nnn1-c1ccc(Cl)cc1 | 748 s
7 | O=C(c1cnccn1)N1CCCC1c1noc(CO)n1 (configuration not stated) | 572 s
8 | Cc1ccc(CNC(=O)c2cc3n(n2)CC(C)(C(=O)NC2CCCCC2)N(C)C3=O)cc1 (configuration not stated) | 605 s
9 | Cc1nc(-c2ccccc2)sc1C(=O)Nc1c(C)nc2ccc(Cl)cn2c1=O | 737 s
10 | COc1cc(Cl)c(C)cc1N1C=C(C#N)S(=O)(=O)c2ccc(F)cc21 | 972 s
11 | CCSc1nnc(-c2nn(C)c3c2CN(C(=O)c2c(F)cccc2Cl)CC3)n1C | 768 s
12 | CC(CCNC(=O)C1CCN(Cc2cn(C)c3ccc(Cl)cc23)CC1)N1CCCCCC1 (configuration not stated) | 569 s
13 | CC(C)NC(=O)c1ccc(OCC2CCCN2C(=O)c2ccc(F)c(F)c2)cc1 (configuration not stated) | 862 s
14 | Cc1nn(CC(=O)N2CCc3ccccc32)c(=O)c2nn(-c3ccccc3)c(C)c12 | 1050 s
15 | O=C(O)c1cn(-c2ccc(F)c(Cl)c2)nn1 | 727 s
16 | Cc1cc2nn(CC(=O)NCC3CCCO3)c(=O)n2c(Nc2ccccc2C)n1 (configuration not stated) | 808 s
17 | Cc1noc(C)c1C1CCCN1C(=O)c1cnn2c(C(F)(F)F)cc(-c3ccco3)nc12 (configuration not stated) | 875 s
18 | CCCN1C(=O)C2CCC(=O)N2c2ccc(C(=O)Nc3ccc4c(c3)OCCO4)cc21 (configuration not stated) | 770 s
19 | Cc1occc1-c1nnc(SCC(=O)N2CCCc3ccccc32)o1 | 962 s

Row | SMILES | RP-LC retention time
20 | CCCCN1C(=O)c2cc(S(=O)(=O)Nc3ccccc3C)ccc2Oc2cccnc21 | 1130 s
21 | CCC(c1cccs1)N1C(=O)[C@H]2CN(S(=O)(=O)c3cccc(C)c3)C[C@H]2C1=O (some centres not stated) | 1040 s
22 | O=C(NCCc1ccccc1)N1CCC(c2noc(-c3ccncc3)n2)C1 (configuration not stated) | 731 s
23 | COc1ccc(-c2noc(CN3N=NC4C(=O)N(c5ccc(C)c(Cl)c5)C(=O)C43)n2)c(OC)c1 (configuration not stated) | 974 s
24 | Cc1ccc(C)c(Nc2c(-c3nc(C)no3)cnc3nc(C)ccc23)c1 | 813 s
25 | CCN1CCC2(CC1)OC(=O)C(C)=C2C(=O)Nc1cc(Cl)c(OC)cc1OC | 643 s
26 | COc1ccc(NC(=O)N2CC3CCCN3c3ccccc32)cc1 (configuration not stated) | 985 s
27 | CN(C)C(=O)c1n[nH]c2c1CN(C(=O)CCC(=O)c1ccc(F)cc1)CC2 | 653 s
28 | O=C(Cc1csc(NC(=O)C2CCCC2)n1)NC1CCN(Cc2ccccc2)CC1 | 569 s
29 | Cn1nccc1C(=O)N1CCCC1c1ccc(Cl)cc1 (configuration not stated) | 817 s
30 | CCCNC(=O)N1CCC(N2CCN(Cc3ccccc3)C(=O)C2=O)CC1 | 653 s
31 | O=C(Cc1csc(-c2ccccc2)n1)Nc1nc(-c2ccc(Cl)cc2)cs1 | 1210 s
32 | COc1ccc(-c2ccc3nc(N4CCC(C(=O)N(C)C)CC4)sc3n2)cc1 | 828 s
33 | Cc1noc2nc(C)n(CC(=O)Nc3ccc(F)c(F)c3)c(=O)c12 | 790 s
34 | CC(C)C(=O)Nc1cn(-c2ccc(C(=O)Nc3ccc4c(c3)OCCO4)cc2)cn1 | 808 s
35 | CN(C)C[C@@H]1CN(c2ncccn2)C[C@H]1NC(=O)NCCc1ccccc1 | 600 s
36 | COc1ccc(NC(=O)N2CCc3cn(C)c4cccc(c34)C2)cc1OC | 794 s
37 | O=C(N[C@@H]1CN(Cc2ccc(Cl)cc2F)CC[C@@H]1CO)C1CC1 | 598 s
